From patent publication US20110300234A1, “Methods of Treating Tumor Cells Using RHCC Protein, Fragment or Variant” (priority 2008, published 2011)
No end group written: not given here.

Tests used:
[1] = system: h-TERT-RPE1 normal epithelial telomerase immortalized cell line; assay: Fluorometric microculture cytotoxicity assay (FMCA); assay type: cell-based, human; settings: h-TERT-RPE1, FMCA 72 hr, highest concentration tested 10 μM; read-out: IC50 (95% confidence interval)
[2] = system: A2780cis resistant ovarian carcinoma sub-line; assay: as above; assay type: cell-based, human; settings: FMCA 72 hr, highest concentration tested 10 μM, read-out: IC50 (95% confidence interval)
Protocol: (§1) FaDu is grown in DMEM and 10% heat-inactivated FBS, 0.1 mM MEM non-essential amino acids, 1.2 mM sodium pyruvate, 24 mM HEPES, with penicillin and streptomycin. MDA 231, a breast cancer cell line, RPMI 8226, a myeloma cell line, its resistant sub-line 8226/Dox40, NCI-H69, a small lung cancer cell line, its resistant sub-line H69AR, ACHN, a primary resistant renal adenocarcinoma, the ovarian carcinoma cell line A2780, and its resistant sub-line, A2780-Cis, are all grown in RPMI-1640 with 10% heat-inactivated FCS, 2 mM glutamine, penicillin and streptomycin. hTERT-RPE1 a normal epithelial telomerase immortalized line is grown in DMEM nutrient mixture F-12 Ham with 10% heat-inactivated FCS, 2 mM glutamine, penicillin and streptomycin. Tumor cells obtained from 3 ovarian carcinoma patients (OC1-OC3) after ethical approval (Uppsala University ethical committee) are isolated by collagenase dispersion and Percoll density gradient centrifugation (GE Healthcare Life Sciences, Uppsala, Sweden) (see Csoka et al, Gynecol. Oncol., 54(2):163-70 (1994)). […] For experiments, frozen cells are thawed, washed twice and kept in RPMI 1640.
(§2) Microtitre plates (Nunc, Roskilde, Denmark) are prepared with 20 μl/well of drug solution 10 times the desired concentration. To evaluate the cytotoxic activity, the drug plates are seeded with 2×10^4 cells/180 μl/well. A column without drugs serves as a control, and a column with medium serves as a blank FMCA is based on measurements of fluorescence generated from hydrolysis of fluorescein diacetate (FDA) to fluorescein by cells with intact plasma membrane (see Larsson et al, Int. J. Cancer, 50(2):177-85 (1992)). The plates are incubated at 37° C. for 72 hr, washed in PBS, whereafter FDA (dissolved in PBS, 10 μg/ml) is added at 100 μl/well. Plates are then incubated for 50 min, and fluorescence/well is measured at 538 nm in a scanning fluorometer (Fluoroscan II, Labsystems Oy, Helsinki, Finland). Fluorescence is proportional to the number of viable cells/well. Quality criteria for successful analysis includes a fluorescence signal in control wells of more than 5 times mean blank value and a mean coefficient of variation in control wells of less than 30%. Experiments were repeated 3 times.
(§3) FMCA data is processed by GraphPad Prism (GraphPad Software, Inc. San Diego, Calif.) with non-linear regression to a standard sigmoidal dose-response model. Zero and 100% cell survival are set as the maximum effect and the baseline, and IC50 (inhibitory concentration 50%) is estimated. For drugs not resulting in 50% reduction of cell survival, the IC50 was set to>the highest concentration tested.

[3] = system: H69AR resistant small-cell lung cancer sub-line; assay: as above; assay type: cell-based, human; settings: FMCA 72 hr, cisplatin concentration, read-out: IC50 (95% confidence interval)
Protocol: as §1, §2, §3

[4] = system: 8226/dox40 resistant myeloma sub-line; assay: as above; assay type: cell-based, human; settings: 8226/dox40, FMCA 72 hr, cisplatin concentration; read-out: IC50 (95% confidence interval)
Protocol: as §1, §2, §3

[5] = system: ACHN renal adenocarcinoma cell line; assay: as above; assay type: cell-based, human; settings: FMCA 72 hr, cisplatin concentration, read-out: IC50 (95% confidence interval)
Protocol: as §1, §2, §3

[6] = system: MDA 231 breast cancer cell line; assay: as above; assay type: cell-based, human; settings: MDA 231, FMCA 72 hr, cisplatin concentration; read-out: IC50 (95% confidence interval)
Protocol: as §1, §2, §3

[7] = system: NCI-H69 small-cell lung cancer cell line; assay: as above; assay type: cell-based, human; settings: NCI-H69, FMCA 72 hr, highest concentration tested 10 μM; read-out: IC50 (95% confidence interval)
Protocol: as §1, §2, §3

[8] = system: A2780 ovarian carcinoma cell line; assay: as above; assay type: cell-based, human; settings: A2780, FMCA 72 hr, highest concentration tested 10 μM; read-out: IC50 (95% confidence interval)
Protocol: as §1, §2, §3

[9] = system: FaDu head and neck squamous cell carcinoma cell line; assay: as above; assay type: cell-based, human; settings: FMCA 72 hr, cisplatin concentration, read-out: IC50 (95% confidence interval)
Protocol: as §1, §2, §3

[10] = system: RPMI 8226/S myeloma cell line; assay: as above; assay type: cell-based, human; settings: FMCA 72 hr, cisplatin concentration, read-out: IC50 (95% confidence interval)
Protocol: as §1, §2, §3

[11] = system: FaDu-cells s.c. in SCID-mice; assay: In vivo tumor reduction assay; set-up: species or system mouse
Text: Mice are palpated and weighed 3 times/week, and euthanized if the tumor diameter exceeded 10 mm or if weight decreased below 80% of starting weight, according to ethical guidelines.

[12] = system: RHCC-specific antibodies in Balb/c-mice; assay: ELISA of antibody response to RHCC in sera; assay type: in vivo, mouse; settings: 14 days after i.v. 0.4 or 0.2 mg RHCC
Protocol: The antibody response to RHCC in sera from Balb/c-mice collected 14 days after i.v. injection of 0.4 or 0.2 mg RHCC (2 mice/group), or 0.1 M NaCl (one mouse), is measured by ELISA. Microtitre plates (BD Biosciences, San Diego, Calif., USA) are coated with 5 μg/ml RHCC in 0.1 M carbonate-buffer pH 9.6 per well o.n. at 4° C. Plates are blocked in blocking solution (5% milk powder, 0.2% Tween in PBS) for 1 hr at room temperature. Serial dilutions of mouse sera in blocking solution (1:50-1:1350) is added in duplicates to the wells. After 1 hr at room temperature, plates are washed and incubated with secondary alkaline phosphatase (AP) conjugated goat-anti mouse IgG antibody (Sigma-Aldrich, Stockholm, Sweden). Plates are washed and developed with nitrophenylphosphate (pNPP) (Sigma-Aldrich, Stockholm, Sweden) and absorbance is measured at 405 nm in a VersaMax microplate reader (Molecular Devices, Sunnyvale, Calif., USA).

[13] = system: Balb/c mice; assay: Tolerability in mice after RHCC injection; settings: after injection with endotoxin purified RHCC
[14] = system: primary human tumor cells from ovarian carcinoma patients (OC1-OC3); assay: FMCA in primary human tumor cells; assay type: cell-based; settings: cell lines and patient samples tested
Protocol: (§4) FaDu is grown in DMEM and 10% heat-inactivated FBS, 0.1 mM MEM non-essential amino acids, 1.2 mM sodium pyruvate, 24 mM HEPES, with penicillin and streptomycin. […]
as §2, with “To evaluate the cytotoxic activity, the drug plates are seeded with 2×10^4 cells/180 μl/well.” left out, “The plates are incubated at 37° C. for 72 hr, washed in PBS, whereafter FDA (dissolved in PBS, 10 μg/ml) is added at 100 μl/well.” left out, “Experiments were repeated 3 times.” left out

[15] = system: 10 cell lines; assay: FMCA, statements over the panel of cell lines; assay type: cell-based, human; settings: tested concentrations, starting at 3.48 μM, all cell types
Protocol: as §4
as §2, with “To evaluate the cytotoxic activity, the drug plates are seeded with 2×10^4 cells/180 μl/well.” left out, “The plates are incubated at 37° C. for 72 hr, washed in PBS, whereafter FDA (dissolved in PBS, 10 μg/ml) is added at 100 μl/well.” left out, “Experiments were repeated 3 times.” left out

[16] = system: murine dendritic cells; assay: Dendritic cell (DC) maturation assay; assay type: cell-based, mouse; settings: 50 μg/ml RHCC, 24 hr, vs unstimulated cells
Protocol: Murine bone marrow-derived dendritic cells (BMDCs) are generated according to Lutz et al, J. Immunol. Methods, 223(1):77-92 (1999), and murine splenic DCs are purified using CD11c (N418) MicroBeads (Miltenyi Biotec, Auburn, Calif., USA) according to the manufacturer. DCs are seeded in 24-well plates (BD Biosciences, San Diego, Calif., USA) at 10^6 cells/ml in R10 medium and mixed with 50 μg/ml RHCC. LPS 1 μg/ml (Sigma-Aldrich, Stockholm, Sweden) is used as positive control. After 24 hr stimulation, DCs are stained with PE-conjugated antibodies to CD40, CD80 and CD86 and FITC-conjugated antibody to MHC Class II I-Ab (BD Biosciences Pharmingen, San Diego, Calif., USA) 30 min at 4° C., washed twice in PBS with 0.1% BSA and analyzed by flow cytometry. IL-12 production is analyzed by ELISA according to the manufacturer (Mabtech, Nacka, Sweden). Plates are coated with 2 μg/ml of anti-IL-12 capture antibody o.n, then after blocking, 100 μl of BMDC culture supernatants are added at dilutions 1:1-1:128 for 2 hr at RT. Plates are thereafter incubated with biotinylated anti-IL-12 antibody 1 hr at room temperature, and the response is visualized as above for ELISA.

[17] = system: IFNγ-secreting splenocytes of Balb/c-mice; assay: IFN-γ EliSpot assay of splenocytes after RHCC injection; settings: 7 days after i.v. 0.4 or 0.2 mg RHCC
[18] = background statement; cited from earlier work

N.N.[Cl][Pt][Cl] [Cisplatin, Cis-diammine-dichloroplatinum (II)]
IC50 [1]: > 10 µM | IC50 [2]: > 10 µM | IC50 [3]: 8.5 µM | IC50 [4]: > 10 µM | IC50 [5]: 6.9 µM | IC50 [6]: > 10 µM | IC50 [7]: > 10 µM | IC50 [8]: > 10 µM | IC50 [9]: 7.9 µM | IC50 [10]: 7.44 µM | alteration in weight ([11]; i.v., during the experiment): no significant alteration in weight

RHCC: Recombinant Right-Handed Coiled-Coil protein tetramer of Tetrabrachion (Staphylothermus marinus), strands of SEQ ID NO:1, purified from endotoxins (GSIINETADDIVYRLTVIIDDRYESLKNLITLRADRLEMIINDNVSTILASI; also: tetramer)
RHCC-specific antibody response (ELISA) [12]: no significant antibody response | tumor reduction, RHCC alone ([11]; 0.675 mg RHCC, separate experiment): no effect on tumor reduction | signs of illness (viability, weight) [13]: no signs of illness | cytotoxic effect of RHCC alone [14]: no cytotoxic effect | toxicity of RHCC alone [15]: nontoxic | CD40 expression [16]: weak increase | IL-12 production [16]: weak increase | maturation markers CD80, CD86 and MHC Class II [16]: no increase | IFNγ-EliSpot T cell response [17]: slight production of specific CD8+ T cells | temperature at which stable [18]: over 100 °C
